According to PubChem BioAssay AID1963826 (Molecular Pharmacology Branch, DTP, NCI, 2024):

System: 926638-142-R-J1-PDC complex spheroid viability
Assay: Anticancer human tumor 926638-142-R-J1-PDC patient-derived endometrial carcinoma cell line growth inhibition [POLQ]
Settings: for IC50: curve of first compound; for viability, T/C: stronger effect = lower value; active = viability on the fitted dose curve at most 10% of control; inactive = the rest
How it was run: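 Patient-derived tumour cells were co-cultured with HUVEC and mesenchymal stem cells as multicellular spheroids at 37 °C. They were treated with POLQ inhibitors (novobiocin, ART-558, RP6685) alone or combined with other agents. Top concentrations were at or near clinical Cmax (otherwise 10 microM; SN-38 at 1 microM), decreasing in half-log steps.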

[1] = second compound 0.0316 µM, first compound 0.0316 µM
[2] = second compound 0.0316 µM, first compound 0.1 µM
[3] = second compound 0.0316 µM, first compound 0.316 µM
[4] = second compound 0.0316 µM, first compound 1 µM
[5] = second compound 0.0316 µM, first compound 3.16 µM
[6] = second compound 0.0316 µM, first compound 10 µM
[7] = second compound 0.1 µM, first compound 0.0316 µM
[8] = second compound 0.1 µM, first compound 0.1 µM
[9] = second compound 0.1 µM, first compound 0.316 µM
[10] = second compound 0.1 µM, first compound 1 µM
[11] = second compound 0.1 µM, first compound 3.16 µM
[12] = second compound 0.1 µM, first compound 10 µM
[13] = second compound 0.316 µM, first compound 0.0316 µM
[14] = second compound 0.316 µM, first compound 0.1 µM
[15] = second compound 0.316 µM, first compound 0.316 µM
[16] = second compound 0.316 µM, first compound 1 µM
[17] = second compound 0.316 µM, first compound 3.16 µM
[18] = second compound 0.316 µM, first compound 10 µM
[19] = second compound 1 µM, first compound 0.0316 µM
[20] = second compound 1 µM, first compound 0.1 µM
[21] = second compound 1 µM, first compound 0.316 µM
[22] = second compound 1 µM, first compound 1 µM
[23] = second compound 1 µM, first compound 3.16 µM
[24] = second compound 1 µM, first compound 10 µM
[25] = second compound 3.16 µM, first compound 0.0316 µM
[26] = second compound 3.16 µM, first compound 0.1 µM
[27] = second compound 3.16 µM, first compound 0.316 µM
[28] = second compound 3.16 µM, first compound 1 µM
[29] = second compound 3.16 µM, first compound 3.16 µM
[30] = second compound 3.16 µM, first compound 10 µM
[31] = second compound 10 µM, first compound 0.0316 µM
[32] = second compound 10 µM, first compound 0.1 µM
[33] = second compound 10 µM, first compound 0.316 µM
[34] = second compound 10 µM, first compound 1 µM
[35] = second compound 10 µM, first compound 3.16 µM
[36] = second compound 10 µM, first compound 10 µM
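Note: spheroids exposed to drugs for one week before readout.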
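Throughout, for viability, T/C: percent viability relative to DMSO vehicle control wells set as 100%.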

CC1COCCN1c1cc(-c2ccnn2C)c2ccnc(-c3ccn[nH]3)c2n1 (stereo unspecified) + COC1C(OC(N)=O)C(O)C(Oc2ccc3c(O)c(NC(=O)c4ccc(O)c(CC=C(C)C)c4)c(=O)oc3c2C)OC1(C)C
active: viability, T/C [6] 9.13% | viability, T/C [12] 7.32% | viability, T/C [18] 7.15% | viability, T/C [24] 7.92% | viability, T/C [30] 8.17% | viability, T/C [36] 9.27%
531 nM: IC50 (second compound 1 µM)
455 nM: IC50 (second compound 0.0316 µM)
inactive: viability, T/C [1] 111% | viability, T/C [2] 89.4% | viability, T/C [3] 58.2% | viability, T/C [4] 32.8% | viability, T/C [5] 12.9% | viability, T/C [7] 89.4% | viability, T/C [8] 81.5% | viability, T/C [9] 53.2% | viability, T/C [10] 30.9% | viability, T/C [11] 11.5% | viability, T/C [13] 107% | viability, T/C [14] 91.6% | viability, T/C [15] 68.8% | viability, T/C [16] 25.9% | viability, T/C [17] 13.6% | viability, T/C [19] 96.3% | viability, T/C [20] 92.5% | viability, T/C [21] 67.6% | viability, T/C [22] 28.3% | viability, T/C [23] 11.3% | viability, T/C [25] 90.6% | viability, T/C [26] 80.3% | viability, T/C [27] 64.5% | viability, T/C [28] 28.3% | viability, T/C [29] 15.1% | viability, T/C [31] 91.5% | viability, T/C [32] 87.6% | viability, T/C [33] 66.8% | viability, T/C [34] 32.6% | viability, T/C [35] 13.8%
517 nM: IC50 (second compound 0.316 µM)
558 nM: IC50 (second compound 10 µM)
493 nM: IC50 (second compound 3.16 µM)
403 nM: IC50 (second compound 0.1 µM)

COc1ccc([C@@H](O)c2cc(-c3ncnc4cc(N5CCOCC5)ccc34)c(F)cc2Cl)nn1 + COC1C(OC(N)=O)C(O)C(Oc2ccc3c(O)c(NC(=O)c4ccc(O)c(CC=C(C)C)c4)c(=O)oc3c2C)OC1(C)C
443 nM: IC50 (second compound 1 µM)
inactive: viability, T/C [1] 106% | viability, T/C [2] 77.5% | viability, T/C [3] 64% | viability, T/C [4] 28.1% | viability, T/C [5] 16.5% | viability, T/C [7] 109% | viability, T/C [8] 89% | viability, T/C [9] 64% | viability, T/C [10] 24.4% | viability, T/C [11] 12.6% | viability, T/C [13] 106% | viability, T/C [14] 92.4% | viability, T/C [15] 64.9% | viability, T/C [16] 31.9% | viability, T/C [17] 17.5% | viability, T/C [18] 9.34% | viability, T/C [19] 84.7% | viability, T/C [20] 82.3% | viability, T/C [21] 57.7% | viability, T/C [22] 29.1% | viability, T/C [23] 10.7% | viability, T/C [25] 96.4% | viability, T/C [26] 102% | viability, T/C [27] 80.4% | viability, T/C [28] 29.8% | viability, T/C [29] 11.9% | viability, T/C [31] 91.6% | viability, T/C [32] 88.9% | viability, T/C [33] 57.8% | viability, T/C [34] 30.9% | viability, T/C [35] 14%
434 nM: IC50 (second compound 0.0316 µM)
active: viability, T/C [6] 8.85% | viability, T/C [12] 7.89% | viability, T/C [24] 9.06% | viability, T/C [30] 7.51% | viability, T/C [36] 7.25%
468 nM: IC50 (second compound 10 µM)
454 nM: IC50 (second compound 0.1 µM)
634 nM: IC50 (second compound 3.16 µM)
535 nM: IC50 (second compound 0.316 µM)

CC(=O)O[C@H]1C(=O)[C@@]2(C)[C@H]([C@H](OC(=O)c3ccccc3)[C@]3(O)C[C@H](OC(=O)[C@H](O)[C@@H](NC(=O)c4ccccc4)c4ccccc4)C(C)=C1C3(C)C)[C@]1(OC(C)=O)CO[C@@H]1C[C@@H]2O + COC1C(OC(N)=O)C(O)C(Oc2ccc3c(O)c(NC(=O)c4ccc(O)c(CC=C(C)C)c4)c(=O)oc3c2C)OC1(C)C
> 3000 nM: IC50 (second compound 0.0316 µM) | IC50 (second compound 0.1 µM) | IC50 (second compound 0.316 µM) | IC50 (second compound 1 µM) | IC50 (second compound 3.16 µM) | IC50 (second compound 10 µM)
inactive: viability, T/C (second compound 0.0316 µM, first compound 0.00949 µM) 94.1% | viability, T/C (second compound 0.0316 µM, first compound 0.03 µM) 76.3% | viability, T/C (second compound 0.0316 µM, first compound 0.0949 µM) 65.2% | viability, T/C (second compound 0.0316 µM, first compound 0.3 µM) 58% | viability, T/C (second compound 0.0316 µM, first compound 0.949 µM) 62.3% | viability, T/C (second compound 0.0316 µM, first compound 3 µM) 51.4% | viability, T/C (second compound 0.1 µM, first compound 0.00949 µM) 89.5% | viability, T/C (second compound 0.1 µM, first compound 0.03 µM) 80.9% | viability, T/C (second compound 0.1 µM, first compound 0.0949 µM) 62.8% | viability, T/C (second compound 0.1 µM, first compound 0.3 µM) 49.9% | viability, T/C (second compound 0.1 µM, first compound 0.949 µM) 60.1% | viability, T/C (second compound 0.1 µM, first compound 3 µM) 59% | viability, T/C (second compound 0.316 µM, first compound 0.00949 µM) 75.5% | viability, T/C (second compound 0.316 µM, first compound 0.03 µM) 74.7% | viability, T/C (second compound 0.316 µM, first compound 0.0949 µM) 63.6% | viability, T/C (second compound 0.316 µM, first compound 0.3 µM) 58.2% | viability, T/C (second compound 0.316 µM, first compound 0.949 µM) 48.4% | viability, T/C (second compound 0.316 µM, first compound 3 µM) 63.4% | viability, T/C (second compound 1 µM, first compound 0.00949 µM) 81.4% | viability, T/C (second compound 1 µM, first compound 0.03 µM) 70% | viability, T/C (second compound 1 µM, first compound 0.0949 µM) 55.9% | viability, T/C (second compound 1 µM, first compound 0.3 µM) 53.1% | viability, T/C (second compound 1 µM, first compound 0.949 µM) 62% | viability, T/C (second compound 1 µM, first compound 3 µM) 51.8% | viability, T/C (second compound 3.16 µM, first compound 0.00949 µM) 86.5% | viability, T/C (second compound 3.16 µM, first compound 0.03 µM) 72.2% | viability, T/C (second compound 3.16 µM, first compound 0.0949 µM) 67% | viability, T/C (second compound 3.16 µM, first compound 0.3 µM) 57.6% | viability, T/C (second compound 3.16 µM, first compound 0.949 µM) 67% | viability, T/C (second compound 3.16 µM, first compound 3 µM) 54.7% | viability, T/C (second compound 10 µM, first compound 0.00949 µM) 94.6% | viability, T/C (second compound 10 µM, first compound 0.03 µM) 73.4% | viability, T/C (second compound 10 µM, first compound 0.0949 µM) 64.9% | viability, T/C (second compound 10 µM, first compound 0.3 µM) 52.1% | viability, T/C (second compound 10 µM, first compound 0.949 µM) 51.8% | viability, T/C (second compound 10 µM, first compound 3 µM) 60.4%
